In brackets after ≈: the same amount, converted by molar mass. Read-outs that look alike come from different tables or passages of the source.
Legend:
[1] = In vitro dissolution of amorphous solid dispersions in simulated intestinal fluid at 37° C.; type: physicochemical
Experimental: […] To each vial was added simulated intestinal fluid (5 mL) and each was shaken at 37° C. […] The samples were then diluted in MeOH and tested using UV method for solution concentration.

[2] = Equilibrium solubility in SIF; type: physicochemical; conditions: for solubility: 37 °C; for Crystalline 17-AG Equilibrium Solubility: average values
Experimental: Solutions were placed at 37° C., and sample aliquots were removed at 24, 48, 72, & 96 hours. Sample aliquots were filtered (0.45 uM PVDF), diluted in SIF/MeOH and measured in triplicate on UV spectrometer.

[3] = Supersaturated levels of 17-AG in SIF pH 6.8 with PVP (DMSO stock diluted 1:100); type: physicochemical; conditions: for 17-AG Supersaturated Concentration: 37° C., average values
Experimental: Supersaturated levels of 17-AG was measured by adding 17-AG DMSO stock solutions (10, 50, 100, & 200 mg/ml) at a 1:100 dilution to SIF pH 6.8 solutions containing 0%, 0.5%, 1%, 2.5%, & 5% PVP (w/v). […] Solutions were stirred in a dissolution apparatus (Paddle speed 150 RPM, 37° C.), and aliquots of each solution were removed at 15, 30, 60, 120, 240, 360, & 1320 minute time points. Sample aliquots were filtered (0.45 uM PVDF), diluted in SIF/MeOH and measured in triplicate on UV spectrometer. Representative data are found in FIG. 25 and FIG. 26.

[4] = tested on: H1975, a non-small cell lung cancer cell line; assay: H1975 mouse xenograph tumor model; type: in vivo, Nu/Nu mice; conditions: 5% DMSO, 75% NS, oral gavage every other day
Experimental: In the first study, H1975, a non-small cell lung cancer cell line which contains L858R and T790M mutations in EGFR, a client protein for HSP90 was utilized. 5-6 week old Nu/Nu mice were implanted with 10×10e6H1975 cells. Dosing commenced after implanted cells reached ˜150 mm3. Dosing was by oral gavage and the dosing schedule was every other day with vehicle (20% PGHS, 5% DMSO, 75% NS), and 75 mg/kg, and 100 mg/kg 17-AG in vehicle.

[5] = tested on: H1650 lung adenocarcinoma cell line; assay: H1650 mouse xenograph tumor model; type: in vivo, Nu/Nu mice; conditions: 50, 75 and 100 mg/kg 17-AG in 15% PVP, 5% EtOH, 80% PG, oral gavage every day
Experimental: In the second study, H1650 lung adenocarcinoma cell line which contains a mutant form of EGFR (Del E746-A750) was utilized. 5-6 week old Nu/Nu mice were implanted with 10×10e6H1650 cells. Dosing commenced after implanted cells reached ˜100 mm3. Dosing was by oral gavage and the dosing schedule was every day with vehicle (15% PVP, 5% EtOH, 80% PG), and 50 mg/kg, 75 mg/kg, and 100 mg/kg 17-AG in vehicle.

[6] = Oral bioavailability of amorphous 17-AG/PVP dispersion vs crystalline 17-AG, single oral capsule dose; type: in vivo; conditions: 15 mg/kg, beagle dogs
Experimental: A 12% 17-AG/PVP (w/w) dispersion was made utilizing rotary evaporation and characterized for purity, residual solvent level, and amorphous content as described, filled into HPMC capsules and dosed into dogs at a level of 15 mg/kg. Blood was collected pre-dose, at 15 minutes, at 30 minutes, 1 hour, 2 hours, 4 hours, 6 hours, 12 hours, and 24 hours post dose into tubes containing sodium heparin. Collected blood samples were immediately placed on wet ice and refrigerated centrifuge for isolation of plasma within 30 min of collection. Isolated plasma was saved in labeled screw cap freezer vials or eppendorf tubes and stored frozen (−70° C.) until analyzed for plasma 17-AG levels. The design of the study is as follows. A single group of dogs consisting of 2 males & 2 females was utilized for dosing, with a week washout in between each dose.

[7] = In vivo exposure of various oral formulations of 17-AG, single oral dose; conditions: female beagle dogs
Experimental: The oral bioavailability of various formulations of the compound 17-AG was investigated by making various oral formulations, dosing beagle dogs and measuring 17-AG levels in blood plasma at various time points following a single oral dose. In addition, the effect of PVP on enhancing exposure was investigated by its addition to many of the tested formulations.
In brief, different crystalline, solvated, and amorphous forms of 17-AG were dosed either as filled capsules or as suspensions. In addition, various 17-AG solutions utilizing a range of different organic, anionic, & non-ionic components were dosed by oral gavage.
The crystalline, solvated, and amorphous forms of 17-AG were made as previously described and blended with either anhydrous lactose or PVP in a Turbula blender for 15 minutes. […]
The nanosuspension was made by levigating crystalline 17-AG by high shear in a microfluidizer (Microfluidics Corp, Model: M-110L) for 10-20 minutes in Tween-80. Mean particle size (d50: […]) was measured by laser light diffraction (Malvern Corp, Mastersizer 2000).
Blood was collected pre-dose, 15, 30 minutes, 1, 2, 4, and 8 hours post-dose into tubes containing sodium heparin. […] Isolated plasma was saved in labeled screw cap freezer vials or eppendorf tubes and stored frozen (−70° C.) until analyzed for plasma 17-AG levels. […]

[8] = 12% load analog in PVP K-30 amorphous dispersion, target conc 2 mg/mL, SIF 37° C., t = 5 min
[9] = 12% load analog in PVP K-30 dispersion, SIF 37° C., t = 5 min
[10] = simulated intestinal fluid (SIF), pH 6.8, fassgf or other biorelevant, thermodynamic from solid, read-out: Eq. Solubility of active

CO[C@H]1C[C@H](C)CC2=C(N)C(=O)C=C(NC(=O)/C(C)=C/C=C\[C@H](OC)[C@@H](OC(N)=O)/C(C)=C/[C@H](C)C1OC(C)=O)C2=O (stereo partly drawn) [11-acetyl-17-AG, 11-acetyl-17-aminogeldanamycin]
Supersaturated concentration of analog/polymer dispersions in SIF at 37° C. (t = 5 min) [1, 8]: 0.167 mg/ml | Fold increase relative to equilibrium solubility [1, 9]: 2 x | solubility [2, 10]: 88 µg/mL (≈ 150 µM)

COC1CC(C)CC2=C(N)C(=O)C=C(NC(=O)C(C)=CC=CC(OC)C(OC(N)=O)C(C)=CC(C)C1=O)C2=O (stereo not drawn) [11-oxo-17-AG, 11-oxo-17-aminogeldanamycin]
Supersaturated concentration of analog/polymer dispersions in SIF at 37° C. (t = 5 min) [1, 8]: 0.395 mg/ml | Fold increase relative to equilibrium solubility [1, 9]: 0 x | Eq. Solubility of active ([2]; pH 6.8): 330 µg/mL

CO[C@H]1/C=C\C=C(/C)C(=O)NC2=CC(=O)C(N)=C(C[C@@H](C)C[C@H](OC)[C@H](O)[C@@H](C)/C=C(\C)[C@@H]1OC(N)=O)C2=O [17-AG, 17-amino-geldanamycin]
time at which 17-AG starts to precipitate out ([3]; 1.0 mg/ml solution in 5% PVP): 120 min | 17-AG Supersaturated Concentration ([3]; SIF pH 6.8, 0% PVP): 0.5 mg/mL | 17-AG Supersaturated Concentration ([3]; SIF pH 6.8, 0.5% PVP): 0.6 mg/mL | 17-AG Supersaturated Concentration ([3]; SIF pH 6.8, 1.0% PVP): 0.7 mg/mL | increase of degree of supersaturation of 17-AG ([3]; SIF pH 6.8, 5% PVP vs 0% PVP): ~2 fold | 17-AG Supersaturated Concentration ([3]; SIF pH 6.8, 5.0% PVP): 0.9 mg/mL | time at which 17-AG starts to precipitate and come out of solution ([3]; SIF without PVP): approximately 120 minutes | Supersaturated concentration of analog/polymer dispersions in SIF at 37° C. (t = 5 min) [1, 8]: 0.712 mg/ml | Fold increase relative to equilibrium solubility [1, 9]: 200 x | solubility ([2]; simulated intestinal fluid (SIF), pH 6.8, fassgf or other biorelevant, thermodynamic from solid): 4 µg/mL (≈ 7.33 µM) | solubility thermodynamic ([2]; simulated intestinal fluid (SIF), pH 6.8, fassgf or other biorelevant, thermodynamic from solid, SIF, 37° C., read-out: Equilibrium solubility of 17-AG in SIF @ 37° C.): 4 µg/mL (≈ 7.33 µM) | reduction in tumor volume as compared to vehicle treated animals ([4]; 75 mg/kg 17-AG in 20% PGHS): ~35% | reduction in tumor volume as compared to vehicle treated animals ([4]; 100 mg/kg 17-AG in 20% PGHS): ~70% | maximum reduction in tumor volume as compared to vehicle treated animals [5]: 62%

CO[C@H]1/C=C\C=C(/C)C(=O)NC2=CC(=O)C(NC(C)=O)=C(C[C@@H](C)C[C@H](OC)[C@H](O)[C@@H](C)/C=C(\C)[C@@H]1OC(N)=O)C2=O [17-acetyl-AG, 17-acetylgeldanamycin]
Supersaturated concentration of analog/polymer dispersions in SIF at 37° C. (t = 5 min) [1, 8]: 1.568 mg/ml | Fold increase relative to equilibrium solubility [1, 9]: ≥ 5 x | solubility [2, 10]: 350 µg/mL (≈ 596 µM)

CO[C@H]1/C=C\C=C(/C)C(=O)NC2=CC(=O)C(N3CCC3)=C(C[C@@H](C)C[C@H](OC)[C@H](O)[C@@H](C)/C=C(\C)[C@@H]1OC(N)=O)C2=O [17-azetidinyl-G, 17-azetidinylgeldanamycin]
Supersaturated concentration of analog/polymer dispersions in SIF at 37° C. (t = 5 min) [1, 8]: 0.167 mg/ml | Fold increase relative to equilibrium solubility [1, 9]: 0 x | solubility [2, 10]: 140 µg/mL (≈ 239 µM)

CO[C@H]1/C=C\C=C(/C)C(=O)NC2=CC(=O)C(NCc3ccccc3)=C(C[C@@H](C)C[C@H](OC)[C@H](O)[C@@H](C)/C=C(\C)[C@@H]1OC(N)=O)C2=O [17-benzyl-AG, 17-benzylaminogeldanamycin]
Supersaturated concentration of analog/polymer dispersions in SIF at 37° C. (t = 5 min) [1]: 0.165 mg/ml (10x) | Supersaturated concentration in SIF at 5 min ([1]; 12% load analog in PVP K-30 dispersion, SIF 37° C., t = 5 min, the values are: supersaturated concentration in SIF at 5 min): 0.165 mg/mL | solubility [2, 10]: 15 µg/mL (≈ 23.6 µM)

CO[C@H]1/C=C\C=C(/C)C(=O)NC2=CC(=O)C(NCC3CC3)=C(C[C@@H](C)C[C@H](OC)[C@H](O)[C@@H](C)/C=C(\C)[C@@H]1OC(N)=O)C2=O [17-cyclopropylmethyl-AG, 17-cyclopropylmethylaminogeldanamycin]
Supersaturated concentration of analog/polymer dispersions in SIF at 37° C. (t = 5 min) [1, 8]: 0.0573 mg/ml | Fold increase relative to equilibrium solubility [1, 9]: 2 x | solubility [2, 10]: 34 µg/mL (≈ 56.7 µM)

CO[C@H]1/C=C\C=C(/C)C(=O)NC2=CC(=O)C(NCCF)=C(C[C@@H](C)C[C@H](OC)[C@H](O)[C@@H](C)/C=C(\C)[C@@H]1OC(N)=O)C2=O [17-fluoroethyl-AG, 17-(fluoroethyl)aminogeldanamycin]
Supersaturated concentration of analog/polymer dispersions in SIF at 37° C. (t = 5 min) [1, 8]: 0.234 mg/ml | Fold increase relative to equilibrium solubility [1, 9]: 5 x | solubility [2, 10]: 40 µg/mL (≈ 67.6 µM)

CO[C@H]1/C=C\C=C(/C)C(=O)NC2=CC(=O)C(N)=C(C[C@@H](C)C[C@H](OC)[C@H](O)[C@@H](C)/C=C(\C)[C@@H]1OC(N)=O)C2=O [Crystalline 17-AG, 17-amino-geldanamycin]
Crystalline 17-AG Equilibrium Solubility ([2]; SIF pH 6.8, 0% PVP, 37° C.): 4.1 µg/mL | Crystalline 17-AG Equilibrium Solubility ([2]; SIF pH 6.8, 0.5% PVP, 37° C.): 5.9 µg/mL | Crystalline 17-AG Equilibrium Solubility ([2]; SIF pH 6.8, 1.0% PVP, 37° C.): 6.5 µg/mL | Crystalline 17-AG Equilibrium Solubility ([2]; SIF pH 6.8, 2.5% PVP, 37° C.): 8.7 µg/mL | increase of equilibrium solubility of crystalline 17-AG ([2]; SIF pH 6.8, 5% PVP vs 0% PVP): ~3 fold | Crystalline 17-AG Equilibrium Solubility ([2]; SIF pH 6.8, 5.0% PVP, 37° C.): 11.2 µg/mL | exposure / oral bioavailability (in words) ([6]; single oral capsule): very low oral bioavailability | Plasma levels of 17-AG following dosing ([6]; uncoated HPMC capsule): below quantifiable limits

CO[C@H]1/C=C\C=C(/C)C(=O)NC2=CC(=O)C(N)=C(C[C@@H](C)C[C@H](OC)[C@H](O)[C@@H](C)/C=C(\C)[C@@H]1OC(N)=O)C2=O [EtOAc Solvate of 17-AG, 17-amino-geldanamycin]
exposure after oral dosing (in words) [7]: low exposure

CO[C@H]1/C=C\C=C(/C)C(=O)NC2=CC(=O)C(N)=C(C[C@@H](C)C[C@H](OC)[C@H](O)[C@@H](C)/C=C(\C)[C@@H]1OC(N)=O)C2=O [amorphous 17-AG, 17-amino-geldanamycin]
exposure after oral dosing (in words) [7]: significant exposure
